Source: PubChem BioAssay AID328 (DTP/NCI, 2004)
Inconclusive results and toxic doses are left out.

Tested on: BDF1 mice, P388 leukemia ip, median survival T/C
Assay: NCI In Vivo Anticancer Drug Screen. Data for tumor model P388 Leukemia (intraperitoneal) in B6D2F1 (BDF1) mice
Conditions: endpoint: median survival time, higher = longer survival
How it was run: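 Antitumour effect was judged in vivo: survival in drug-treated mice, normalised to that of vehicle-dosed controls, gives the reported T/C.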

[1] = dose: 100.0 mg/kg/injection, schedule: Q04DX002 (ip), vehicle: saline with Tween-80
[2] = dose: 200.0 mg/kg/injection, schedule: Q04DX002 (ip), vehicle: saline with Tween-80
[3] = dose: 100.0 mg/kg/injection, schedule: Q04DX003 (ip), vehicle: saline with Tween-80
[4] = dose: 200.0 mg/kg/injection, schedule: Q04DX003 (ip), vehicle: saline with Tween-80
[5] = dose: 400.0 mg/kg/injection, schedule: Q04DX003 (ip), vehicle: saline with Tween-80

For `CC1(C)N=C(N)N=C(N)N1c1ccc(CCCCc2ccc(S(=O)(=O)F)cc2)c(Cl)c1`, the T/C (dose: 0.75 mg/kg/injection, schedule: Q01DX009 (ip), vehicle: saline) was 160 % of control, the T/C (dose: 1.0 mg/kg/injection, schedule: Q01DX009 (ip), vehicle: saline) was 150 % of control and the T/C (dose: 1.5 mg/kg/injection, schedule: Q01DX009 (ip), vehicle: saline) was 151 % of control. For the same compound, the T/C (dose: 1.78 mg/kg/injection, schedule: Q01DX009 (ip), vehicle: saline) was 168 % of control, the T/C (dose: 2.25 mg/kg/injection, schedule: Q01DX009 (ip), vehicle: saline) was 174 % of control and the T/C (dose: 2.66 mg/kg/injection, schedule: Q01DX009 (ip), vehicle: saline) was 174 % of control. The T/C (dose: 4.0 mg/kg/injection, schedule: Q01DX009 (ip), vehicle: saline) was 157 % of control, the T/C (dose: 4.4 mg/kg/injection, schedule: Q01DX009 (ip), vehicle: saline) was 174 % of control and the T/C (dose: 6.0 mg/kg/injection, schedule: Q01DX009 (ip), vehicle: saline) was 158 % of control. The T/C (dose: 6.6 mg/kg/injection, schedule: Q01DX009 (ip), vehicle: saline) was 173 % of control, the T/C (dose: 10.0 mg/kg/injection, schedule: Q01DX009 (ip), vehicle: saline) was 201 % of control and the T/C (dose: 12.5 mg/kg/injection, schedule: Q04DX003 (ip), vehicle: saline) was 118 % of control. The T/C (dose: 15.0 mg/kg/injection, schedule: Q01DX009 (ip), vehicle: saline) was 204 % of control, the T/C (dose: 18.7 mg/kg/injection, schedule: Q01DX009 (ip), vehicle: saline) was 195 % of control and the T/C (dose: 37.5 mg/kg/injection, schedule: Q01DX009 (ip), vehicle: saline) was 245 % of control. For the same compound, the T/C (dose: 50.0 mg/kg/injection, schedule: Q04DX003 (ip), vehicle: saline) was 154 % of control and the T/C (dose: 75.0 mg/kg/injection, schedule: Q04DX003 (ip), vehicle: saline) was 150 % of control.

In the case of `CC1CC(C)(C)N=C(C[Si](C)(C)CC2=NC(C)(C)CC(C)O2)O1` (stereo unspecified), the T/C (dose: 25.0 mg/kg/injection, schedule: Q04DX003 (ip), vehicle: Klucel (hydroxypropylcellulose) (HPC)) is reported as 114 % of control, the T/C (dose: 50.0 mg/kg/injection, schedule: Q04DX003 (ip), vehicle: Klucel (hydroxypropylcellulose) (HPC)) is reported as 109 % of control and the T/C (dose: 100.0 mg/kg/injection, schedule: Q04DX003 (ip), vehicle: Klucel (hydroxypropylcellulose) (HPC)) is reported as 113 % of control.

In the case of `COc1ccc(C(OC)C2CCCCC2N2CCCCC2)cc1` (stereo unspecified), the T/C (dose: 0.5 mg/kg/injection, schedule: Q01DX009 (ip), vehicle: Klucel (hydroxypropylcellulose) (HPC)) is reported as 90 % of control, the T/C (dose: 1.0 mg/kg/injection, schedule: Q01DX009 (ip), vehicle: Klucel (hydroxypropylcellulose) (HPC)) is reported as 101 % of control and the T/C (dose: 2.0 mg/kg/injection, schedule: Q01DX009 (ip), vehicle: Klucel (hydroxypropylcellulose) (HPC)) is reported as 98 % of control.

`N#CC(Nc1ccccc1C(N)=O)c1ccccc1` (stereo unspecified) was tested, and the T/C (dose: 100.0 mg/kg/injection, schedule: Q04DX003 (ip), vehicle: saline) was 109 % of control, the T/C (dose: 200.0 mg/kg/injection, schedule: Q04DX003 (ip), vehicle: saline) was 104 % of control and the T/C (dose: 400.0 mg/kg/injection, schedule: Q04DX003 (ip), vehicle: saline) was 95 % of control.

`CCCC/C(C=O)=C\NC(=O)Nc1ccccc1` was tested, and the T/C (dose: 50.0 mg/kg/injection, schedule: Q04DX002 (ip), vehicle: saline with Tween-80) was 100 % of control, the T/C [1] was 90 % of control and the T/C [2] was 98 % of control.

For `O=C(Cc1ccc(F)cc1)c1ccccc1`, the T/C [3] was 88 % of control, the T/C [4] was 111 % of control and the T/C [5] was 105 % of control.

For `CC[C@H]1CN(C)[C@H]2Cc3c([nH]c4ccccc34)C(=O)C[C@H]1C2C(=O)OC` (stereo partly specified), the T/C (dose: 0.25 mg/kg/injection, schedule: Q01DX009 (ip), vehicle: other) was 86 % of control, the T/C (dose: 0.5 mg/kg/injection, schedule: Q01DX009 (ip), vehicle: other) was 86 % of control and the T/C (dose: 1.0 mg/kg/injection, schedule: Q01DX009 (ip), vehicle: other) was 86 % of control. For the same compound, the T/C (dose: 2.0 mg/kg/injection, schedule: Q01DX009 (ip), vehicle: other) was 95 % of control.

For `C=C(C)CSC(=S)NNc1ccccc1`, the T/C (dose: 37.5 mg/kg/injection, schedule: Q04DX003 (ip), vehicle: acetone) was 109 % of control, the T/C (dose: 56.25 mg/kg/injection, schedule: Q01DX009 (ip), vehicle: Klucel (hydroxypropylcellulose) (HPC)) was 115 % of control and the T/C (dose: 75.0 mg/kg/injection, schedule: Q04DX003 (ip), vehicle: acetone) was 100 % of control. For the same compound, the T/C (dose: 100.0 mg/kg/injection, schedule: Q01DX001 (ip), vehicle: alcohol) was 100 % of control, the T/C (dose: 112.5 mg/kg/injection, schedule: Q01DX009 (ip), vehicle: Klucel (hydroxypropylcellulose) (HPC)) was 110 % of control and the T/C (dose: 150.0 mg/kg/injection, schedule: Q01DX009 (ip), vehicle: Klucel (hydroxypropylcellulose) (HPC)) was 115 % of control. The T/C (dose: 150.0 mg/kg/injection, schedule: Q01DX009 (ip), vehicle: alcohol) was 109 % of control, the T/C (dose: 150.0 mg/kg/injection, schedule: Q04DX003 (ip), vehicle: acetone) was 104 % of control and the T/C (dose: 200.0 mg/kg/injection, schedule: Q01DX001 (ip), vehicle: alcohol) was 104 % of control. The T/C (dose: 225.0 mg/kg/injection, schedule: Q01DX009 (ip), vehicle: Klucel (hydroxypropylcellulose) (HPC)) was 115 % of control, the T/C (dose: 225.0 mg/kg/injection, schedule: Q04DX003 (ip), vehicle: alcohol) was 100 % of control and the T/C (dose: 335.0 mg/kg/injection, schedule: Q01DX009 (ip), vehicle: Klucel (hydroxypropylcellulose) (HPC)) was 115 % of control. The T/C (dose: 340.0 mg/kg/injection, schedule: Q04DX003 (ip), vehicle: alcohol) was 95 % of control.

For `CC1CN1P(=O)(N1CC2CCC(CC2)C1)N1CC1C` (stereo unspecified), the T/C (dose: 14.0 mg/kg/injection, schedule: Q01DX009 (ip), vehicle: saline with Tween-80) was 113 % of control, the T/C (dose: 21.0 mg/kg/injection, schedule: Q01DX009 (ip), vehicle: saline with Tween-80) was 122 % of control and the T/C (dose: 33.0 mg/kg/injection, schedule: Q01DX009 (ip), vehicle: saline with Tween-80) was 159 % of control. For the same compound, the T/C (dose: 50.0 mg/kg/injection, schedule: Q01DX009 (ip), vehicle: saline with Tween-80) was 154 % of control and the T/C (dose: 100.0 mg/kg/injection, schedule: Q01DX009 (ip), vehicle: saline with Tween-80) was 86 % of control.

With `COc1cc2c3c4c1OCc1c5c(cc(c1-4)CC3[N+](C)(C)CC2)OCO5` (stereo unspecified) the T/C (dose: 6.25 mg/kg/injection, schedule: Q01DX001 (ip), vehicle: saline) was 105 % of control and the T/C (dose: 12.5 mg/kg/injection, schedule: Q01DX001 (ip), vehicle: saline) was 99 % of control.

In the case of `CC1(C)COC(c2ccccc2)=N1`, the T/C (dose: 100.0 mg/kg/injection, schedule: Q01DX001 (ip), vehicle: saline sonified) is reported as 100 % of control, the T/C (dose: 200.0 mg/kg/injection, schedule: Q01DX001 (ip), vehicle: saline sonified) is reported as 100 % of control and the T/C (dose: 400.0 mg/kg/injection, schedule: Q01DX001 (ip), vehicle: saline sonified) is reported as 110 % of control.

`O=S1(=O)C(Cc2ccccc2)CCCN1c1ccccc1` (stereo unspecified) was tested, and the T/C [1] was 104 % of control, the T/C [2] was 104 % of control and the T/C (dose: 400.0 mg/kg/injection, schedule: Q04DX002 (ip), vehicle: saline with Tween-80) was 102 % of control.

`CS(=O)(=O)OC[C@H](OS(=O)(=O)O)[C@H](COS(C)(=O)=O)OS(=O)(=O)O` was tested, and the T/C (dose: 50.0 mg/kg/injection, schedule: Q04DX003 (ip), vehicle: saline with Tween-80) was 110 % of control, the T/C [3] was 110 % of control and the T/C [4] was 110 % of control.

For `COC(=O)/C=C/c1ccc([N+](=O)[O-])cc1`, the T/C [3] was 118 % of control, the T/C [4] was 113 % of control and the T/C [5] was 109 % of control.

For `C/C(=C/B1OCCO1)CCl`, the T/C (dose: 100.0 mg/kg/injection, schedule: Q04DX003 (ip), vehicle: saline sonified) was 105 % of control, the T/C (dose: 200.0 mg/kg/injection, schedule: Q04DX003 (ip), vehicle: saline sonified) was 100 % of control and the T/C (dose: 400.0 mg/kg/injection, schedule: Q04DX003 (ip), vehicle: saline sonified) was 110 % of control.
